# Patent US8629276B2, “Inhibitors of human immunodeficiency virus replication” (priority 2012, dated 2014)
# Tested on: recombinant NL-Rluc virus
# Assay: Inhibition of HIV replication (NL-RLuc virus, luciferase readout in MT-2 cells)
# Format: cell-based
# Conditions: Human immunodeficiency virus 1, MT2, 120 h
row,Structure (SMILES),EC50
1,"CC(C)c1nc2c(c(-c3ccc(F)cc3)c1C(OC(C)(C)C)C(=O)O)CN(C(=O)CCCc1ccccc1)CC2(C)C (centres unmarked) [Example 9, 2-tert-Butoxy-2-(4-(4-fluorophenyl)-2-isopropyl-8,8-dimethyl-6-(4-phenylbutanoyl)-5,6,7,8-tetrahydro-1,6-naphthyridin-3-yl)acetic acid]",6710 nM
2,"Cc1ccc(-c2c3c(nc(C)c2C(OC(C)(C)C)C(=O)O)CCN(c2ccccc2)C3)cc1 (centres unmarked) [Example 31, 2-(tert-Butoxy)-2-(2-methyl-6-phenyl-4-(p-tolyl)-5,6,7,8-tetrahydro-1,6-naphthyridin-3-yl)acetic acid]",466 nM
3,"Cc1ccc(-c2c3c(nc(C)c2[C@H](OC(C)(C)C)C(=O)O)CCN(C(=O)CCCc2ccccc2)C3)cc1 [Example 36, (S)-2-(tert-Butoxy)-2-(2-methyl-6-(4-phenylbutanoyl)-4-(p-tolyl)-5,6,7,8-tetrahydro-1,6-naphthyridin-3-yl)acetic acid]",52 nM
4,"Cc1ccc(CCCN2CCc3nc(C)c([C@H](OC(C)(C)C)C(=O)O)c(-c4cc(F)c5c(c4C)CCCO5)c3C2)cc1 [Example 54, (2S)-2-(tert-Butoxy)-2-(4-(8-fluoro-5-methylchroman-6-yl)-2-methyl-6-(3-(p-tolyl)propyl)-5,6,7,8-tetrahydro-1,6-naphthyridin-3-yl)acetic acid]",2 nM
5,"Cc1ccc(-c2c3c(nc(C)c2C(OC(C)(C)C)C(=O)O)CCN(C)C3)cc1 (centres unmarked) [Example 23, 2-(tert-Butoxy)-2-(2,6-dimethyl-4-(p-tolyl)-5,6,7,8-tetrahydro-1,6-naphthyridin-3-yl)acetic acid]",2080 nM
